Data as given in patent US11344510B2, “Arylcyclohexylamine derivatives and their use in the treatment of psychiatric disorders” (Gilgamesh Pharmaceuticals, Inc., priority 2019, dated 2022).
“Also recorded” adds a separate entry of the source. Where two headings read alike, the source gives them in different places.

Experiments:
MK-801 site of NMDAR = MK-801 site of NMDAR (Rattus norvegicus, UniProt P35439); conditions: read-out: NMDAR Ki ± SEM, from Ebert et al. 1997; cited from earlier work
mice (forced swim test) = test: Forced swim test in mice, 30-minute pre-treatment; assay type: in vivo, Swiss Webster mice; conditions: s.c., 30 minutes before test, relative to vehicle
Experimental: Animals. Male Swiss Webster mice, aged 4-5 weeks (body weight 25-30 g, Envigo) were used in the experiments Animals were housed in groups of 4-5 under controlled temperatures and 12-hour light/dark cycles, with ad libitum food (Teklad 7001 rodent diet) and water. These studies were carried out in strict accordance with the recommendations in the Guide for the Care and Use of Laboratory Animals of the National Institutes of Health. All efforts were made to minimize suffering.
Drugs and Drug Administration. Imipramine hydrochloride was administered intraperitoneally (i.p.) at a dose of 30 mg/kg. Other compounds were tested as the racemates (indicated by “rac” nomenclature) and were administered subcutaneously (s.c.) as the hydrochloride salts. Normal saline was used as the vehicle and all compounds were administered at a volume of 10 mL/kg, 30 minutes before behavioral testing.
Forced Swim Test (FST). Group size was n=10 per treatment Animals were acclimated to the testing room 30 minutes prior to behavioral testing. Mice were placed individually in a cylinder of water measuring 5 inches wide by 10 inches tall and maintained at 24-25° C. The activity of each mouse was recorded for 6 minutes using Noldus Ethovision tracking software, with periods of inactivity being automatically quantified.
Statistical Analysis. The data points shown are the mean±standard error of the mean (SEM). Analysis was performed using GraphPad Prism 6. Indicated statistical comparisons represent the results of unpaired, two-tailed t tests relative to vehicle (not corrected for multiple comparisons).

[1] = molecular target: MK-801 binding site of the N-methyl-D-aspartate receptor (NMDAR); test: NMDAR radioligand binding with [3H]MK-801, Method A; design: species or system Wistar rat; conditions: MK-801 site, Method A, Wistar rat brain (minus cerebellum), 5.0 nM [3H]MK-801; read-out: NMDAR Ki ± SEM
Experimental: Radioligand Binding—Method A. Affinity of the test compounds for NMDAR was determined in radioligand binding experiments with [^3H]MK-801 by Eurofins Panlabs, Inc., using methods adapted from the literature (Javitt et al. 1987; Reynolds et al. 1989) and under the conditions described in Table 12.

[2] = Oral bioavailability in mice, Method A; assay type: in vivo; conditions: CD-1 mice; for F: 10 mg/kg; for half-life / Cmax / AUC(0-inf): male, mouse
Experimental: Animals. Male CD-1 mice were used in these studies Animals were randomly assigned to treatment groups and were fasted for 4 h before dosing.
Drugs. Test compounds were dissolved in normal saline (ketamine) or de-ionized water (other compounds) and administered intravenously (iv) or orally (po) at a dose of 10 mg/kg (calculated based on freebase) and at a volume of 5 mL/kg body weight. Compounds were tested as the racemates (indicated by “rac” nomenclature) or pure enantiomers (indicated by “R” or “S” nomenclature).
Sample Collection and Bioanalysis. Blood samples were collected under 2,2,2-tribromoethanol anesthesia (150 mg/kg, ip) from the orbital sinus at 0.083, 0.25, 0.5, 1, 2, 4, 8 and 24 h (4 animals per time point) into microcontainers containing K2EDTA Immediately after collection of blood, mice were euthanized by cervical dislocation and brain samples were collected at the same time points. All samples were immediately processed, flash-frozen, and stored at −70° C. until subsequent analysis. Plasma samples were separated by centrifugation of whole blood and aliquots (50 μL) were mixed with 200 μL of internal standard solution (400 ng/mL in 1:1 v/v CH3CN:MeOH). After mixing by pipetting and centrifuging for 4 min at 6000 rpm, 0.5 μL of each supernatant was analyzed for drug using a fit-for-purpose liquid chromatography-tandem mass spectrometry (LC-MS/MS) method, with authentic samples of each analyte used for calibration and identification. Brain samples (weight 100 mg±1 mg) were dispersed in 500 μL, of internal standard solution (400 ng/mL in 4:1 v/v MeOH:water) using zirconium oxide beads (115 mg±5 mg) in The Bullet Blender® homogenizer for 30 s at speed 8. After homogenization, the samples were centrifuged for 4 min at 14,000 rpm and 0.5 μL of each supernatant was analyzed for drug using a fit-for-purpose LC-MS/MS method, with authentic samples of each analyte used for calibration and identification.
Data Analysis. The drug concentrations of samples below the lower limit of quantitation (LLOQ) were designated as zero. Pharmacokinetic data analysis was performed using noncompartmental, bolus injection or extravascular input analysis models in WinNonlin 5.2 (PharSight). Data points below LLOQ were presented as missing to improve validity of t112 calculations.

[3] = HLM stability (High Activity); assay type: in vitro ADME; conditions: both sexes, human, liver microsomes, pH 7.4, Condition 2 (High Activity), 1.0 mg protein/mL
Summary of the method: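 Pooled male and female human liver microsomes, 1.0 mg protein/mL, in 100 mM PBS pH 7.4 with NADPH-regenerating system; compound 1 μM at 37° C, five time points over 60 min. Parent remaining by LC-MS/MS; kel, t1/2 and Clint from linear regression of ln(AUC) versus time.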

[4] = HLM stability (Low Activity); assay type: in vitro ADME; conditions: both sexes, human, liver microsomes, pH 7.4, Condition 1 (Low Activity), 0.42 mg protein/mL
Experimental: For some of the compounds, stability was tested under two microsomal incubation conditions, one with normal enzymatic activity (low activity) and one with higher enzymatic loading, longer incubation time, and lower compound concentration (high activity) intended to increase metabolic lability.
HLM Stability (Low Activity). Pooled HLM from adult male and female donors (XenoTech H0630) were used. Microsomal incubations were carried out in 96-well plates in 5 aliquots of 40 μL, each (one for each time point). Liver microsomal incubation medium consisted of PBS (100 mM, pH 7.4), MgCl2 (3.3 mM), NADPH (3 mM), glucose-6-phosphate (5.3 mM), and glucose-6-phosphate dehydrogenase (0.67 units/mL), with 0.42 mg of liver microsomal protein per mL. Control incubations were performed by replacing the NADPH-cofactor system with PBS. Test compounds (2 μM, final solvent concentration 1.6%) were incubated with microsomes at 37° C., shaking at 100 rpm. Incubations were performed in duplicate. Five time points over 40 minutes were analyzed. The reactions were stopped by adding 12 volumes of 90% acetonitrile-water to incubation aliquots, followed by protein sedimentation by centrifugation at 5500 rpm for 3 minutes. Supernatants were analyzed for parent compound remaining using a fit-for-purpose liquid chromatography-tandem mass spectrometry (LC-MS/MS) method, with authentic samples of each analyte used for identity confirmation.
Data Analysis. The elimination constant (kel), half-life (t1/2) and intrinsic clearance (Clint) were determined in a plot of […] versus time, using linear regression analysis.

CSDS-susceptible mice = test: Behavioral tests after chronic social defeat stress (CSDS); assay type: in vivo, C57BL/6 mice; conditions: 10 mg/kg i.p., single dose
[5] = calculated based on brain exposure
[6] = brain, 10 mg/kg iv, read-out: t1/2 (iv)
[7] = brain, 10 mg/kg po, read-out: t1/2 (po)
[8] = plasma, 10 mg/kg iv, read-out: AUC0-inf (iv) (converted)
[9] = plasma, 10 mg/kg iv, read-out: t1/2 (iv)
[10] = plasma, 10 mg/kg po, read-out: AUC0-inf (po) (converted)
[11] = plasma, 10 mg/kg po, read-out: t1/2 (po)
[12] = plasma, absolute oral bioavailability

For CN[C@@]1(c2ccccc2Cl)CCCCC1=O (single isomer, unassigned) [(R)-ketamine, ketamine], the Ki (MK-801 site of NMDAR) is given as 1400 ± 100 nM.

For CNC1(c2ccccc2OC)CCCCC1=O (racemic) [Compound 4rac], the “immobility time in FST” value (mice (forced swim test)) was “did not have effects”, the Ki [1] was 35000 nM and the “AUC0-inf (iv)” value ([2]; brain, 10 mg/kg iv) was 292,000 ng*min/g. The “AUC0-inf (po)” value ([2]; brain, 10 mg/kg po) was 135,000 ng*min/g, the F [2, 5] was 46% and the half-life [2, 6] was 19.9 min. It also gave a Cmax ([2]; brain, 10 mg/kg po) of 1900 ng/g, a half-life [2, 7] of 45.9 min and an AUC(0-inf) [2, 8] of 1650 ng·h/mL. For the same compound, the half-life [2, 9] was 20.6 min, the Cmax ([2]; plasma, 10 mg/kg po) was 958 ng/mL and the AUC(0-inf) [2, 10] was 850 ng·h/mL. It also gave a half-life [2, 11] of 42.6 min, an F [2, 12] of 51% and a half-life at 1 μM [3] of 819 min. It also gave a microsomal CLint at 1 μM [3] of 1 µL/min/mg, a half-life at 2 μM [4] of 43.2 h and a microsomal CLint at 2 μM [4] of 1 µL/min/mg.

In the case of CN[C@]1(c2ccccc2Cl)CCCCC1=O (single isomer, unassigned) [(S)-ketamine, ketamine], the Ki (MK-801 site of NMDAR) is given as 300 ± 13 nM.

With CNC1(c2ccccc2F)CCCCC1=O (racemic) [Compound 35rac, 2-(2-Fluorophenyl)-2-(methylamino)cyclohexan-1-one] the “immobility time in FST” value (mice (forced swim test)) was “did not have effects”, the Ki [1] was 1820 nM and the “AUC0-inf (iv)” value ([2]; brain, 10 mg/kg iv) was 186,000 ng*min/g. The “AUC0-inf (po)” value ([2]; brain, 10 mg/kg po) was 34,200 ng*min/g, the F [2, 5] was 18% and the half-life [2, 6] was 16.1 min. It also gave a Cmax ([2]; brain, 10 mg/kg po) of 1840 ng/g, a half-life [2, 7] of 19.1 min and an AUC(0-inf) [2, 8] of 1300 ng·h/mL. For the same compound, the half-life [2, 9] was 15.1 min, the Cmax ([2]; plasma, 10 mg/kg po) was 618 ng/mL and the AUC(0-inf) [2, 10] was 363 ng·h/mL. For the same compound, the half-life [2, 11] was 19.7 min, the F [2, 12] was 28% and the “antidepressant-like activity in behavioral tests after CSDS (TST, FST, SPT)” value (CSDS-susceptible mice) was “superior to 37rac; also recorded: reversed the pro-depressive effects”. The half-life at 1 μM [3] was 148 min, the microsomal CLint at 1 μM [3] was 5 µL/min/mg and the half-life at 2 μM [4] was 2.85 h. The microsomal CLint at 2 μM [4] was 10 µL/min/mg.

For CCNC1(c2cccc(OC)c2)CCCCC1=O (racemic) [Compound 2rac], the “immobility time in FST” value (mice (forced swim test)) was “reduced time immobile; also recorded: induced antidepressant-like effects”, the “AUC0-inf (iv)” value ([2]; brain, 10 mg/kg iv) was 279,000 ng*min/g and the “AUC0-inf (po)” value ([2]; brain, 10 mg/kg po) was 11,800 ng*min/g. The F [2, 5] was 4%, the half-life [2, 6] was 16.1 min and the Cmax ([2]; brain, 10 mg/kg po) was 420 ng/g. For the same compound, the half-life [2, 7] was 16.6 min, the AUC(0-inf) [2, 8] was 1100 ng·h/mL and the half-life [2, 9] was 17.9 min. For the same compound, the Cmax ([2]; plasma, 10 mg/kg po) was 135 ng/mL, the AUC(0-inf) [2, 10] was 62.8 ng·h/mL and the half-life [2, 11] was 14 min. The F [2, 12] was 6%, the half-life at 1 μM [3] was 199 min and the microsomal CLint at 1 μM [3] was 3 µL/min/mg. For the same compound, the half-life at 2 μM [4] was 4.85 h and the microsomal CLint at 2 μM [4] was 6 µL/min/mg.
